Entries after “also recorded” stand apart in the source; their conditions may differ.
Assays:
[1] = test system: primary human dermal fibroblasts (HDF); test: Primary human dermal fibroblast (HDF) proliferation assay (2D), with or without wound exudate; assay type: cell-based; settings: for cell proliferation under wound exudate-induced inhibition: FIG. 22, WE #43 and #78 used with veliparib; for enhancement of PARP inhibitor effect on fibroblast proliferation: added to PARP inhibitor titration; for HDF proliferation, PARP inhibitor alone: talazoparib 1 μM
Procedure: (§1) Primary human dermal fibroblasts (HDF) were purchased from CELLnTEC, Bern. They were routinely grown in Dulbecco's modified Eagle's medium (DMEM) containing 10% FCS, 2 mM glutamine, and 100 U/ml penicillin/100 μg/ml streptomycin. Media, antibiotics, and glutamine were bought from Lonza. The cells were used at passage 5-15. Cells were trypsinized and seeded at 5000 cells/well in 200 μl into the inner wells of 96-well plates. The outer wells were loaded with sterile water. The cells were allowed to adhere overnight and then incubated for 72 hours at 37° C. under the following conditions: graded compound concentrations or 20 ng/ml PDGF-BB (Tonbo Biosciences) in the absence or presence of different dilutions of sterile-filtered WE in medium. For control samples, 200p1 medium was added instead of specific stimuli. Alternatively, the cells were seeded into 384-well plates at 2500 cells/well directly together with test compounds or growth factors and WE or medium in a total volume of […].
(§2) At the end of the 72-hour incubation period, supernatants were removed for the determination of IL-1ß, and the cells were fixed with 4% paraformaldehyde (Morphisto) for 15 minutes at room temperature and washed 3 times with PBS. A control plate was fixed after the overnight adherence of the cells (day 1) to determine the starting cell number.
Total cellular protein was determined as a measure of cell number by staining the fixed cells with sulforhodamine B (SRB, Sigma). A 0.4% SRB solution in 1% acetic acid was added to the wells for 30 minutes. The wells were then washed with 1 acetic acid until the wash solution remained colorless. After drying, the dye was eluted with 10 mM Tris.HCl, pH8.5, and absorbance was measured either at 550 or 492 nm for lower and higher cell densities, respectively. The average absorbance of the sample representing the day 1 starting cell number (for 96-well plates) was subtracted from the absorbance values of the WE-treated cells.
All experiments were carried out in triplicate for each sample and concentration, and means±standard deviation (SD) were used for the evaluation of the experiment. Results are expressed as percentage of control values for unstimulated cells.
(§3) Low molecular weight compounds (see list in Table 1) were dissolved in DMSO (Bioreagent for cell culture, Sigma) at 10 mM or 100 mM and diluted at least 1:1000 in medium for cellular assays (final DMSO concentration ≤0.1%).
(§4) Cells were incubated with compounds for 72 hours in proliferation assays and up to 8 days for FDM assay (refreshed after 4 days). When compounds were tested for their effect on WE stimulation, the incubation of cells with compounds was started and ended simultaneously with WE-incubation.

IL-1ß = IL-1ß secretion by HDF in the presence of wound exudate (ELISA); assay type: cell-based, human; settings: FIG. 22; WE #43 and #78 used with veliparib
Procedure: as §1, §2
IL-1ß levels were determined with a commercial ELISA kit. The amount of IL-1ß contained in the wound exudate added to the cells was subtracted from the total IL-ß in the supernatants in order to determine the cytokine secreted by the cells.

[2] = test system: primary human dermal fibroblasts (HDF); test: Fibroblast-derived matrix (FDM) formation assay (3D), with or without wound exudate; assay type: cell-based; settings: for FDM formation, veliparib combined with glucocorticoid: WE #78, patient with diabetes, immunosuppression after kidney transplantation (FIG. 7)
Procedure: HDF cells were seeded at 5000 cells/well on day −3 into 96-well tissue culture plates (1250 cells/well for 384-well plates), which had been pre-coated for 1 hour at 37° C. with 0.2% gelatin solution (Sigma). When the cells reached confluence (=day 0), a matrix promoting supplement (vitamin C: 2-phospho-L-ascorbic acid trisodium salt, 100 μg/ml; Sigma) was added together with test samples containing PDGF-BB, TGF-ß1 or graded concentrations of compounds −/+WE as described for the HDF proliferation assay. After 4 days, medium was replaced by fresh vitamin C- and stimulus- as well as compound-containing medium, maintaining the conditions initiated on day 0. TGF-ß1 and PDGF-BB were included as positive controls to promote FDM formation and cell growth, respectively. After a total incubation time of 8 days, FDM production was measured in fixed cultures via SRB staining and evaluated as described above. In some cases, the experiment was stopped and evaluated already on day 4.
as §3, with “≤0.1%). Compounds were typically tested in half-logarithmic dilution series (1:3.33), starting at 10 μM or 100 μM as the highest compound concentration.” for “≤0.1%).”
as §4

[3] = test system: alpha-smooth muscle actin (α-SMA); test: Immunolocalization of alpha-smooth muscle actin in 2D fibroblast culture (myofibroblast differentiation); assay type: cell-based, human; settings: TGF-ß 20 ng/ml
Procedure: as §1, with “The cells were allowed to adhere overnight and then incubated for 72 hours at 37° C. under the following conditions: graded compound concentrations or 20 ng/ml PDGF-BB (Tonbo Biosciences) in the absence or presence of different dilutions of sterile-filtered WE in medium.” left out
After fixation with paraformaldehyde, the cells were incubated for 1 hour at room temperature with a monoclonal mouse-anti-human antibody against alpha-smooth muscle actin (α-SMA) from e-Bioscience, washed 3 times with PBS and developed with an Alexa Fluor-labelled donkey-anti-mouse IgG (Molecular Probes). The cells were washed 3 times with PBS and examined in a Zeiss ZEISS Observer.Z1 microscope, using the software AxioVision 48.

IL-1α = test: Fibroblast-macrophage coculture with wound exudate: IL-1α; assay type: cell-based, human; settings: WE #78; veliparib 10 μM, talazoparib 0.1 μM
Procedure: CD14^+ monocytes, isolated from PBMC of healthy donors by magnetic bead separation were incubated either alone or in the presence of primary human dermal fibroblasts (CelINTec) or fibroblast-derived matrices (FDM). FDM had been generated from primary human dermal fibroblasts by a 3-week incubation with the growth supplements vitamin C or insulin and EGF (vitamin C: 2-phospho-L-ascorbic acid trisodium salt, 100 μg/ml; human EGF, 5 ng/ml; human insulin, 5 μg/ml). Alternatively, fibroblast monolayer cultures can be used as well. After 4 days to a week to allow for macrophage differentiation in the presence or absence of M-CSF (25 ng/ml), the cultures were stimulated overnight with graded concentrations of test compounds in the absence or presence of various dilutions of sterile-filtered WE. IFN-g (50 ng/ml), LPS (100 ng/ml) and IL-4 (25 ng/ml) or combinations thereof served as controls for M1 and M2 macrophage induction. For negative control samples, medium was added instead of specific stimuli. WE were added to the culture medium for overnight stimulation at dilutions ranging from 1:25 to 1:100.
Supernatants were harvested and frozen for cytokine determination by ELISA, and cells were harvested and subjected to FACS analysis, gating on the monocyte population. Geometric means or mean fluorescence intensities (MFI) were used to quantify surface marker expression. […]

[4] = PARP inhibitor dose series + PDGF 20 ng/ml, WE #78 (FIG. 18)
[5] = presence of WE #78 (diabetic patient)
[6] = presence of wound exudate, WE not specified (FIG. 6: microscopy)
[7] = presence of ⅔ of the wound exudates tested

Compound | cell proliferation under wound exudate-induced inhibition [1] | IL-1ß secretion induced by wound exudate (IL-1ß) | fibroblast-derived matrix (FDM) formation ([2]; presence of WE #78 (FIG. 9)) | HDF proliferation, PARP inhibitor plus PDGF [1, 4] | fibroblast (HDF) proliferation [1, 5] | other results
COC1CCN(C(=O)c2cc(Cc3n[nH]c(=O)c4ccccc34)ccc2F)CC1 [AZD-2461] | enhanced cell proliferation | reducing IL-1ß secretion | strong positive effect | – | – | –
CNCc1ccc(-c2[nH]c3cc(F)cc4c3c2CCNC4=O)cc1 [rucaparib] | enhanced cell proliferation | reducing IL-1ß secretion | strong positive effect | even further enhanced by the addition of PDGF | dose-dependent increase of HDF proliferation | –
TGF-ß: Transforming growth factor beta, protein growth factor | – | – | – | – | – | staining for α-SMA ([3]; absence of WE, veliparib 10 μM): increased the staining for the myofibroblast marker alpha-smooth muscle actin (α-SMA); staining for α-SMA ([3]; presence of WE #78): does not induce α-SMA on its own; also recorded: did not induce α-SMA on its own
Medroxyprogesterone | – | – | – | – | – | fibroblast (HDF) proliferation ([1]; presence of wound exudate (WE) of patients, several or unspecified WE): Qualitatively identical results; also recorded: surprisingly enhances HDF proliferation and ECM formation; also recorded: effect was confirmed; FDM formation, veliparib combined with glucocorticoid [2]: enhance the effect of veliparib on rescuing fibroblast-derived matrix (FDM) formation after wound exudate treatment; FDM formation, veliparib combined with glucocorticoid ([2]; listed as MED): enhance the effect of veliparib on rescuing FDM formation after WE treatment; fibroblast-derived matrix (FDM/ECM) formation [2, 6]: surprisingly enhances HDF proliferation and ECM formation
O=C1O[C@H]([C@@H](O)CO)C(O)=C1O [vitamin C, ascorbic acid] | – | – | – | – | – | fibroblast (HDF) proliferation ([1]; absence of wound exudate (normal medium)): enhances HDF proliferation/ECM formation; also recorded: enhances both fibroblast proliferation; enhancement of PARP inhibitor effect on fibroblast proliferation ([1]; WE #43, different patient (FIG. 15)): strong and consistent synergistic effect could be confirmed; also recorded: synergistically enhance the PARP inhibitor compound effects; enhancement of PARP inhibitor effect on fibroblast proliferation ([1]; dexamethasone 3 nM, vitamin C 100 μg/ml, WE #78 (FIG. 14)): enhance the positive enhancing effect of the PARP antagonists; also recorded: synergistically enhance the PARP inhibitor compound effects; fibroblast (HDF) proliferation [1, 7]: no effect on HDF proliferation/ECM formation; also recorded: no effect on fibroblast proliferation in the 2D assay; fibroblast-derived matrix (FDM/ECM) formation ([2]; absence of wound exudate): enhances both fibroblast proliferation in the fibroblast proliferation assay (also called 2D assay) and fibroblast-derived matrix (FDM) formation; fibroblast-derived matrix (FDM) formation [2, 7]: no effect on fibroblast proliferation in the 2D assay or fibroblast-derived matrix (FDM) formation in the 3D assay
CN(C)Cc1ccc(-c2nc3cccc4c3n2CCNC4=O)cc1 [AG-14361] | enhanced cell proliferation | reducing IL-1ß secretion | strong positive effect | – | – | –
O=C(c1cc(Cc2n[nH]c(=O)c3ccccc23)ccc1F)N1CCN(C(=O)C2CC2)CC1 [olaparib] | enhanced cell proliferation | reducing IL-1ß secretion | strong positive effect | even further enhanced by the addition of PDGF | dose-dependent increase of HDF proliferation | –
Cn1ncnc1[C@H]1c2n[nH]c(=O)c3cc(F)cc(c23)N[C@@H]1c1ccc(F)cc1 [talazoparib] | enhanced cell proliferation | reducing IL-1ß secretion | strong positive effect | even further enhanced by the addition of PDGF | strongly beneficial effects; also recorded: dose-dependent increase of HDF proliferation | fibroblast (HDF) proliferation ([1]; presence of WE #43): strongly beneficial effects; HDF proliferation ([1]; talazoparib 0.3 μM, WE #78 (FIG. 19)): rescues the cells from the inhibitory effect of the WE; also recorded: rescued the cells from the inhibitory effect of the wound exudate; HDF proliferation, PARP inhibitor plus PDGF ([1]; veliparib 10 μM, talazoparib 1 μM + PDGF 20 ng/ml, WE #78 (FIG. 17B)): additively or synergistically enhanced by PDGF; HDF proliferation, PARP inhibitor alone ([1]; veliparib 10 μM, WE #78 (FIG. 17B)): induce proliferation; HDF proliferation, PARP inhibitor alone ([1]; veliparib 10 μM, absence of WE (FIG. 17A)): no or even an inhibitory effect on fibroblasts on their own; IL-1α induced by wound exudate (IL-1α): reduced; fibroblast-derived matrix (FDM) formation ([2]; presence of WE #78 (FIG. 9), listed as Talazoparib): most active of the PARP inhibitors tested in 3D culture; fibroblast-derived matrix (FDM/ECM) formation [2, 6]: “cleaned up” WE-induced fibroblast matrix inhibition
